Test results published in ChEMBL document CHEMBL1139635, “Synthesis, antitumor evaluation and DNA photocleaving activity of novel methylthiazonaphthalimides with aminoalkyl side chains” (Bioorg Med Chem Lett, 2005).

Assays:
Nucleic Acid = test: Scatchard binding constant towards calf thymus DNA; format: functional; conditions: Bos taurus
P388 = test: Cytotoxic concentration against murine P388 leukemia cell line growth determined by microculture tetrazolium-formazan method; format: functional, cell-based; conditions: Mus musculus
A549 = test: Cytotoxic concentration against human A549 lung cancer cell line determined by sulforhodamine B dye-staining method; format: functional, cell-based

Row | Structure (SMILES) | Binding constant (Nucleic Acid) | IC50 (P388) | IC50 (A549)
1 | Cc1nc2cc3c4c(cccc4c2s1)C(=O)N(CCN1CCNCC1)C3=O | 226000 M⁻¹ | 1130 nM | 20.8 nM
2 | CN(C)CCN1C(=O)c2cccc3cc(N)cc(c23)C1=O [AMONAFIDE] | – | 200 nM | –
3 | Cc1nc2cc3c4c(cccc4c2s1)C(=O)N(CCCN(C)C)C3=O | 666000 M⁻¹ | 1700 nM | 1800 nM
4 | CCN(CC)CCN1C(=O)c2cccc3c2c(cc2nc(C)sc23)C1=O | 166000 M⁻¹ | 640 nM | 158 nM
5 | Cc1nc2cc3c4c(cccc4c2s1)C(=O)N(CCN(C)C)C3=O | 231000 M⁻¹ | 31 nM | 82.8 nM
